{
  "source": "ChEMBL document CHEMBL2016513",
  "about": "“Synthesis and evaluation of human phosphodiesterases (PDE) 5 inhibitor analogs as trypanosomal PDE inhibitors. Part 1. Sildenafil analogs” (Bioorg Med Chem Lett, 2012)",
  "key": {"[1]": {"target": "T1, Class 1 phosphodiesterase PDEB1 (Trypanosoma brucei) (UniProt Q8WQX9)", "T1 sequence (whole entry)": "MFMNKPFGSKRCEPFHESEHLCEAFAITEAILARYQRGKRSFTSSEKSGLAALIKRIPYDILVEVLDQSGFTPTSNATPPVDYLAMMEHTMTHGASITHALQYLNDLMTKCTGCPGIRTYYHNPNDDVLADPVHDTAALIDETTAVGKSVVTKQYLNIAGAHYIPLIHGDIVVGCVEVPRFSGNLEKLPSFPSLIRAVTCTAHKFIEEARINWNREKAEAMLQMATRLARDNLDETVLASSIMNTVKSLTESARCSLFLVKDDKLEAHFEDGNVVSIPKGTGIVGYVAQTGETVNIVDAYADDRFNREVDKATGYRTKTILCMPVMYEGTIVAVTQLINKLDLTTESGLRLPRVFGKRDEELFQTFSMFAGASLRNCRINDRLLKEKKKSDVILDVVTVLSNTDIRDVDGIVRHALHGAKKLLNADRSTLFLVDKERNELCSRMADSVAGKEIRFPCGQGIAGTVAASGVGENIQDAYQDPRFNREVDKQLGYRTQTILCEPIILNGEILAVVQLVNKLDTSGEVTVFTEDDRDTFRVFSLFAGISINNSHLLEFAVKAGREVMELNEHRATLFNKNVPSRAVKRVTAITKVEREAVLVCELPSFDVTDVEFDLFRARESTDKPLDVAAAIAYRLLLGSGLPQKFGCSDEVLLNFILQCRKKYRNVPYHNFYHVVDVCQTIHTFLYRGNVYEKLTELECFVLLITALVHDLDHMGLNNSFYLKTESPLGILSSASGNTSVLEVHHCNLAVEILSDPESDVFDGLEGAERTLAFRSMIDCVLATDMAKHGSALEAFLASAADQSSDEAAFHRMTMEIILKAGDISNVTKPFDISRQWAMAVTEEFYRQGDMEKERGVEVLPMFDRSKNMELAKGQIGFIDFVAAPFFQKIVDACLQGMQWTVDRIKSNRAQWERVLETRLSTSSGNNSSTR", "assay": "Inhibition of Trypanosoma brucei PDEB1 at 100 uM"}, "[2]": {"assay": "Solubility of the compound in 10% DMSO", "assay_type": "physicochemical"}},
  "data": [
    {"smiles": "CCCc1nn(C)c2c(=O)[nH]c(-c3cccnc3OCC)nc12", "values": [
      {"measurement": "inhibition", "setting": "[1]", "result": 41.5, "unit": "%"}
    ]},
    {"smiles": "CCOc1ccc(S(=O)(=O)N2CCN(C)CC2)cc1-c1nc2c(-c3ccccc3)n[nH]c2c(=O)[nH]1", "values": [
      {"measurement": "inhibition", "setting": "[1]", "result": 70.9, "unit": "%"}
    ]},
    {"smiles": "CCCc1nn(C)c2c(=O)[nH]c(-c3ncccc3C)nc12", "values": [
      {"measurement": "inhibition", "setting": "[1]", "result": 72.1, "unit": "%"}
    ]},
    {"smiles": "CCOc1ccccc1-c1nc2c(-c3ccccc3)n[nH]c2c(=O)[nH]1", "values": [
      {"measurement": "inhibition", "setting": "[1]", "result": 22.9, "unit": "%"}
    ]},
    {"smiles": "CCCc1nn(C)c2c(=O)[nH]c(-c3ccnn3C)nc12", "values": [
      {"measurement": "solubility", "setting": "[2]", "result": "Insoluble"}
    ]},
    {"smiles": "CCCc1nn(C)c2c(=O)[nH]c(-c3cscn3)nc12", "values": [
      {"measurement": "inhibition", "setting": "[1]", "result": 25.4, "unit": "%"}
    ]},
    {"smiles": "CCCc1n[nH]c2c(O)nc(-c3ccccc3OCC)nc12", "values": [
      {"measurement": "solubility", "setting": "[2]", "result": "Insoluble"}
    ]},
    {"smiles": "CCCc1nn(C)c2c(=O)[nH]c(-c3nnco3)nc12", "values": [
      {"measurement": "inhibition", "setting": "[1]", "result": 3.2, "unit": "%"}
    ]},
    {"smiles": "CCOc1ccc(S(=O)(=O)N2CCN(C)CC2)cc1-c1nc2c(C)nn(C)c2c(=O)[nH]1", "values": [
      {"measurement": "solubility", "setting": "[2]", "result": "Insoluble"}
    ]},
    {"smiles": "CCCc1nn(C)c2c(=O)[nH]c(-c3oc(C)nc3C)nc12", "values": [
      {"measurement": "inhibition", "setting": "[1]", "result": 29, "unit": "%"}
    ]},
    {"smiles": "CCCc1nn(C)c2c(=O)[nH]c(-c3cn(C)cn3)nc12", "values": [
      {"measurement": "inhibition", "setting": "[1]", "result": 5.3, "unit": "%"}
    ]},
    {"smiles": "CCCc1nn(C)c2c(=O)[nH]c(-c3ccoc3)nc12", "values": [
      {"measurement": "inhibition", "setting": "[1]", "result": 13.8, "unit": "%"}
    ]},
    {"smiles": "CCCc1nn(C)c2c(=O)[nH]c(-c3cnc(C)cn3)nc12", "values": [
      {"measurement": "inhibition", "setting": "[1]", "result": 30, "unit": "%"}
    ]},
    {"smiles": "CCCc1nn(C)c2c(=O)[nH]c(-c3ccsc3)nc12", "values": [
      {"measurement": "solubility", "setting": "[2]", "result": "Insoluble"}
    ]},
    {"smiles": "CCCc1nn(C)c2c(=O)[nH]c(-c3ccc(=O)[nH]n3)nc12", "values": [
      {"measurement": "inhibition", "setting": "[1]", "result": 11.1, "unit": "%"}
    ]},
    {"smiles": "CCOc1ccccc1-c1nc2c(-c3ccccc3)nn(-c3ccccc3)c2c(=O)[nH]1", "values": [
      {"measurement": "solubility", "setting": "[2]", "result": "Insoluble"}
    ]},
    {"smiles": "CCCc1nn(C)c2c(=O)[nH]c(-c3cccc(S(=O)(=O)N4CCN(C)CC4)c3)nc12", "values": [
      {"measurement": "inhibition", "setting": "[1]", "result": 8.4, "unit": "%"}
    ]},
    {"smiles": "CCCc1nn(C)c2c(=O)[nH]c(-c3cccnc3OC(C)C)nc12", "values": [
      {"measurement": "inhibition", "setting": "[1]", "result": 53.8, "unit": "%"}
    ]},
    {"smiles": "CCCc1nn(C)c2c(=O)[nH]c(-c3ccc(O)cc3)nc12", "values": [
      {"measurement": "inhibition", "setting": "[1]", "result": 24, "unit": "%"}
    ]},
    {"smiles": "CCOc1ccc(S(=O)(=O)N2CCN(C)CC2)cc1-c1nc2cnn(C)c2c(=O)[nH]1", "values": [
      {"measurement": "inhibition", "setting": "[1]", "result": 13.6, "unit": "%"}
    ]},
    {"smiles": "CCCc1nn(C)c2c(=O)[nH]c(-c3nccnc3N)nc12", "values": [
      {"measurement": "inhibition", "setting": "[1]", "result": 14.1, "unit": "%"}
    ]},
    {"smiles": "CCCc1nn(C)c2c(=O)[nH]c(-c3cccnc3O)nc12", "values": [
      {"measurement": "inhibition", "setting": "[1]", "result": 22.5, "unit": "%"}
    ]},
    {"smiles": "CCCc1n[nH]c2c(=O)[nH]c(-c3cc(S(=O)(=O)N4CCN(C)CC4)ccc3OCC)nc12", "values": [
      {"measurement": "inhibition", "setting": "[1]", "result": 16, "unit": "%"}
    ]},
    {"smiles": "CCOc1ccccc1-c1nc2c(-c3ccccc3)nn(CC(N)=O)c2c(=O)[nH]1", "values": [
      {"measurement": "inhibition", "setting": "[1]", "result": 7, "unit": "%"}
    ]},
    {"smiles": "CCCc1nn(C)c2c(=O)[nH]c(-c3cnccn3)nc12", "values": [
      {"measurement": "inhibition", "setting": "[1]", "result": 6.5, "unit": "%"}
    ]},
    {"smiles": "CCCc1nn(-c2cccnc2)c2c(=O)[nH]c(-c3cc(S(=O)(=O)N4CCN(C)CC4)ccc3OCC)nc12", "values": [
      {"measurement": "inhibition", "setting": "[1]", "result": 32.4, "unit": "%"}
    ]},
    {"smiles": "CCCc1nn(C)c2c(=O)[nH]c(-c3snnc3C)nc12", "values": [
      {"measurement": "inhibition", "setting": "[1]", "result": 16.3, "unit": "%"}
    ]},
    {"smiles": "CCCc1nn(C)c2c(=O)[nH]c(-c3ccccc3OCC)nc12", "values": [
      {"measurement": "inhibition", "setting": "[1]", "result": 21.8, "unit": "%"}
    ]},
    {"smiles": "CCCc1nn(C)c2c(=O)[nH]c(-c3cn(C)nc3C)nc12", "values": [
      {"measurement": "inhibition", "setting": "[1]", "result": 7.2, "unit": "%"}
    ]},
    {"smiles": "CCCc1nn(C)c2c(=O)[nH]c(-c3cccnc3OC)nc12", "values": [
      {"measurement": "inhibition", "setting": "[1]", "result": 77.2, "unit": "%"}
    ]},
    {"smiles": "CCOc1ccccc1-c1nc2c(-c3ccccc3)nn(-c3cccnc3)c2c(=O)[nH]1", "values": [
      {"measurement": "solubility", "setting": "[2]", "result": "Insoluble"}
    ]},
    {"smiles": "CCOc1ccc(S(=O)(=O)N2CCN(C)CC2)cc1-c1nc2c(-c3ccccc3)nn(C)c2c(=O)[nH]1", "values": [
      {"measurement": "inhibition", "setting": "[1]", "result": 17.5, "unit": "%"}
    ]},
    {"smiles": "CCCc1nn(C)c2c(=O)[nH]c(-c3cc(S(=O)(=O)N4CCN(C)CC4)ccc3OCC)nc12", "values": [
      {"measurement": "inhibition", "setting": "[1]", "result": 51.5, "unit": "%"}
    ]}
  ]
}
